{"source": "paper PMC6291622", "about": "“Vitamin E Increases Antimicrobial Sensitivity by Inhibiting Bacterial Lipocalin Antibiotic Binding” (mSphere, 2018)", "biological_target": "T1, BcnA (Burkholderia cenocepacia, UniProt B4EE32)", "T1 construct": "gene BCAL3311; purified BcnA expressed from pET28a-bcnA in E. coli BL21", "T1 sequence (B4EE32 27-186)": "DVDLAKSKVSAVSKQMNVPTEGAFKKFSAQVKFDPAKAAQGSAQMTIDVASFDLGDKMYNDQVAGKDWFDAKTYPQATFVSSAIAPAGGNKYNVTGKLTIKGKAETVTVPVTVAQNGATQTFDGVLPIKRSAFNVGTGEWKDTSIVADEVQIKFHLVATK", "test": "isothermal titration calorimetry (ITC), […]°C, PBS pH […], N = […]", "assay_type": "binding", "data": [{"smiles": "CCn1cc(C(=O)O)c(=O)c2cc(F)c(N3CCNCC3)cc21", "note": "[norfloxacin]", "values": [{"measurement": "Kd", "result": 4.9, "unit": "mM"}]}]}
